Test results reported in patent US4328202A, “Ionic 5-C-substituted 2,4,6-triiodoisophthalic acid derivatives” (Schering, A.G., priority 1980, dated 1982).

Columns and labels:
Rat [1] = experiment: Neural compatibility after intracerebral injection in rats (24 h observation; ED50 = toxic effects in 50% of the animals); type: in vivo; settings: intracerebrally, meglumine salt in water, probit analysis
Procedure: (§1) Table I presents a comparison of the conventional contrast media iothalamic acid (E) and diatrizoic acid (F) with 5-Carbamoyl-3-N-methylcarbamoyl-2,4,6-triiodobenzoic acid (D) of this invention, in terms of neural compatibility after intracerebral or intracisternal administration, as well as their general compatibility.
(§2) The compounds are administered, as meglumine salts dissolved in water, to 10 rats each in varying doses. After intracerebral and intracisternal injection, the animals are observed for 24 hours; the ED50 is denoted as the dose causing toxic effects (strong behavioral anomalies and disturbances in motor coordination, convulsions, or death) in 50% of the animals. After intravenous injection, the observation time was 7 days. ED50 and LD50 were calculated by probit analysis.

Rat [2] = experiment: General compatibility after intravenous injection in rats (7 days observation); type: in vivo; settings: intravenously, meglumine salt in water, probit analysis
Procedure: as §1, §2

Rat [3] = experiment: Neural compatibility after intracisternal injection in rats (24 h observation; ED50 = toxic effects in 50% of the animals); type: in vivo; settings: intracisternally, meglumine salt in water, probit analysis
Procedure: as §1, §2

Iodine content of acid = type: physicochemical; settings: of the free acid

Compound | ED50 (strong behavioral anomalies, disturbances in motor coordination, convulsions, or death) (Rat [1]) [mg I/kg] | LD50 (Rat [2]) [g I/kg] | ED50 (strong behavioral anomalies, disturbances in motor coordination, convulsions, or death) (Rat [3]) [mg I/kg] | Iodine content of acid (Iodine content of acid) [%] | LD50 (Rat [1]) [mg I/kg] | LD50 (Rat [3]) [mg I/kg]
CC(=O)Nc1c(I)c(NC(C)=O)c(I)c(C(=O)O)c1I [F, diatrizoic acid] | 12 | 7.3 | 3.0 | 62.1 | – | –
CNC(=O)c1c(I)c(NC(C)=O)c(I)c(C(=O)O)c1I [E, iothalamic acid] | 36 | 7.4 | 10.6 | 62.1 | 52 | 58
CNC(=O)c1c(I)c(C(N)=O)c(I)c(C(=O)O)c1I [D, 5-Carbamoyl-3-N-methylcarbamoyl-2,4,6-triiodobenzoic acid] | 42 | 8.7 | 13.2 | 63.5 | 66 | 65
